Data as given in publication PMC7954794, “Protein context shapes the specificity of SH3 domain-mediated interactions in vivo” (Nature Communications, 2021).

Tests used:
[1] = tested on: growth of yeast strains under 51 stress conditions; assay: Growth assays in 51 stress conditions (Fig. 1E-F, S2D, S5B); type: cell-based, Saccharomyces cerevisiae; set-up: key to Growth (Fig. S2D) / growth of ABP1 SH3-swapped strains in stress condition: log2 colony size, average of median per strain (growth score); conditions: for Growth (Fig. S2D): ABP1 SH3-swapped strains; for growth of ABP1 SH3-swapped strains in stress condition: FigS2D
Procedure: All WT, SH3-deleted, KO (except for CDC25 which is the only essential SH3-containing gene in yeast), ABP1 SH3-swapped, and SLA1 SH3-shuffled strains were grown on omnitrays in 1536 formats and robotically manipulated with a pin tool (the DHFR F[1,2] bait strains were used except for the KO strains). Each strain was randomly positioned in 6 replicates per plate and two plates per condition were performed, for 12 replicates per strain in total. A border of two rows and two columns of WT strains (BY4741) around the plate was used to remove border effects. Strains were grown on YPD media for two days at 30 °C. They were then replicated on 51 different media that are described in the Supplementary Table 3 and were incubated at 37 °C in a spImager custom platform with images acquired every two hours for four days. The colony sizes from plate pictures were also measured with the R package “Gitter” and the output was manually inspected. Positions with an abnormality in colony circularity were removed. The colony sizes after 74 h of incubation at 37 °C were log2 transformed and used for the analyses. First, the differences between the two plate replicates were corrected to remove plate effects. The median colony size was calculated for each strain per plate. Strains with a difference in their median colony size of more than two between the two plate replicates were removed. Finally, the average of the median colony size was calculated for each strain per condition (growth score).

[2] = tested on: PPIs identified as affected by the SH3 domain deletions; assay: Liquid DHFR-PCA low-throughput validation of PPIs affected by SH3 deletion (Fig. S1D-E); type: cell-based, Saccharomyces cerevisiae; conditions: Deletedscore/WTscore
Procedure: Liquid DHFR-PCA low-throughput experiments were performed to validate the PPIs identified as affected by the SH3 domain deletions in the high-throughput solid DHFR-PCA screen (256 PPIs weaker or lost and 116 PPIs stronger or gained following domain deletions). Mating and the diploid selection were performed as described for the large-scale experiment, with the exception that the plates were in 384 formats. Following the second diploid selection, diploid cells were inoculated in a 96 v-shaped well plate using a robotically manipulated 96 pin tool in a synthetic complete medium with MSG at pH 6.0 with NAT and HPH. After 48 h of growth, optical density (OD) was read using a TECAN Infinite F200 Pro, and dilutions to 1 OD in sterile nanopure water were prepared. Cells were then diluted to 0.1 OD by combining 25 µl of cell suspension at OD = 1 and 225 µl of PCA selection media without agar in a 96-wells plate. Plates were incubated at 30 °C in a TECAN Infinite M Nano and OD was monitored each 15 min for 72 h.

## CDC25
[1]; Bathophenanthroline.0.1uM
  Growth (Fig. S2D): 10.8311
[1]; Bathophenanthroline.10uM
  Growth (Fig. S2D): 10.71
[1]; Bathophenanthroline.1uM
  Growth (Fig. S2D): 10.807
[1]; CaCl2.100mM
  Growth (Fig. S2D): 10.8749
[1]; CaCl2.250mM
  Growth (Fig. S2D): 10.774
[1]; CaCl2.500mM
  Growth (Fig. S2D): 10.2891
[1]; Caffein.10mM
  Growth (Fig. S2D): 10.1016
[1]; Caffein.2mM
  Growth (Fig. S2D): 11.0786
[1]; CdCl2.100uM
  Growth (Fig. S2D): 9.608
[1]; CdCl2.10uM
  Growth (Fig. S2D): 10.8752
[1]; CdCl2.50uM
  Growth (Fig. S2D): 9.913
[1]; CuSO4.1mM
  Growth (Fig. S2D): 10.4484
[1]; CuSO4.5mM
  Growth (Fig. S2D): 7.922
[1]; Cycloheximide.0.05.uM
  Growth (Fig. S2D): 11.0566
[1]; Cycloheximide.0.2.uM
  Growth (Fig. S2D): 10.636
[1]; Cycloheximide.0.5.uM
  Growth (Fig. S2D): 10.117
[1]; DMSO.2.
  Growth (Fig. S2D): 11.0377
[1]; DMSO.6.
  Growth (Fig. S2D): 9.934
[1]; DMSO.8.
  Growth (Fig. S2D): 9.291
[1]; Ethanol.2.
  Growth (Fig. S2D): 10.7941
[1]; Ethanol.6.
  Growth (Fig. S2D): 10.2979
[1]; Ethanol.8.
  Growth (Fig. S2D): 10.0965
[1]; Galactose.2.
  Growth (Fig. S2D): 10.7721
[1]; Glycerol.2.
  Growth (Fig. S2D): 9.727
[1]; Hydroxyurea.25mM
  Growth (Fig. S2D): 10.7845
[1]; Hygromycin.190uM
  Growth (Fig. S2D): 10.9998
[1]; Hygromycin.19uM
  Growth (Fig. S2D): 11.0292
[1]; Hygromycin.95uM
  Growth (Fig. S2D): 11.0306
[1]; MMS.0.004.
  Growth (Fig. S2D): 10.9713
[1]; MMS.0.02.
  Growth (Fig. S2D): 10.7211
[1]; MMS.0.04.
  Growth (Fig. S2D): 9.98
[1]; Menadione.100uM
  Growth (Fig. S2D): 10.5959
[1]; Menadione.200uM
  Growth (Fig. S2D): 10.4955
[1]; Menadione.50uM
  Growth (Fig. S2D): 10.8366
[1]; NaCl.0.25M
  Growth (Fig. S2D): 10.7898
[1]; NaCl.1M
  Growth (Fig. S2D): 9.773
[1]; Nitroquinoline.10uM
  Growth (Fig. S2D): 10.6639
[1]; Nitroquinoline.50uM
  Growth (Fig. S2D): 10.6019
[1]; Nystatin.0.01uM
  Growth (Fig. S2D): 11.0504
[1]; Nystatin.0.1uM
  Growth (Fig. S2D): 11.1
[1]; Raffinose.2.
  Growth (Fig. S2D): 11.0411
[1]; Rapamycin.10nM
  Growth (Fig. S2D): 9.922
[1]; Rapamycin.50nM
  Growth (Fig. S2D): 9.425
[1]; SC.pH3
  Growth (Fig. S2D): 10.4587
[1]; SC.pH6
  Growth (Fig. S2D): 11.0388
[1]; SDS.0.01.
  Growth (Fig. S2D): 11.0329
[1]; SDS.0.02.
  Growth (Fig. S2D): 11.0194
[1]; SDS.0.05.
  Growth (Fig. S2D): 10.8768
[1]; Sorbitol.10mM
  Growth (Fig. S2D): 11.0003
[1]; Sorbitol.1mM
  Growth (Fig. S2D): 11.0466
[1]; Sorbitol.5mM
  Growth (Fig. S2D): 10.9359

## RVS167
[2]; prey YLR144C_1
  Ratio: 0.9983
[2]; prey YLR166C_1
  Ratio: 0.4047
[2]; prey YLR314C_1
  Ratio: 1.009
[2]; prey YLR332W_1
  Ratio: 0.5527
[2]; prey YML016C_1
  Ratio: 0.7209
[2]; prey YMR192W_1
  Ratio: 0.4415
[2]; prey YNL084C_1
  Ratio: 0.8207
[2]; prey YNL106C_1
  Ratio: 0.4642
[2]; prey YNL255C_1
  Ratio: 0.9975
[2]; prey YPL246C_1
  Ratio: 0.6027
[2]; prey YPL249C_1
  Ratio: 0.4423
[2]; prey YPR055W_1
  Ratio: 0.5489
[1]; Bathophenanthroline.0.1uM
  growth of ABP1 SH3-swapped strains in stress condition: 10.8266
[1]; Bathophenanthroline.10uM
  growth of ABP1 SH3-swapped strains in stress condition: 10.6504
[1]; Bathophenanthroline.1uM
  growth of ABP1 SH3-swapped strains in stress condition: 10.7571
[1]; CaCl2.100mM
  growth of ABP1 SH3-swapped strains in stress condition: 10.7957
[1]; CaCl2.250mM
  growth of ABP1 SH3-swapped strains in stress condition: 10.7147
[1]; CaCl2.500mM
  growth of ABP1 SH3-swapped strains in stress condition: 10.2304
[1]; Caffein.10mM
  growth of ABP1 SH3-swapped strains in stress condition: 10.0011
[1]; Caffein.2mM
  growth of ABP1 SH3-swapped strains in stress condition: 10.9656
[1]; CdCl2.100uM
  growth of ABP1 SH3-swapped strains in stress condition: 9.478
[1]; CdCl2.10uM
  growth of ABP1 SH3-swapped strains in stress condition: 10.8675
[1]; CdCl2.50uM
  growth of ABP1 SH3-swapped strains in stress condition: 10.0052
[1]; CuSO4.1mM
  growth of ABP1 SH3-swapped strains in stress condition: 10.4401
[1]; CuSO4.5mM
  growth of ABP1 SH3-swapped strains in stress condition: 7.809
[1]; Cycloheximide.0.05.uM
  growth of ABP1 SH3-swapped strains in stress condition: 11.0732
[1]; Cycloheximide.0.2.uM
  growth of ABP1 SH3-swapped strains in stress condition: 10.5897
[1]; Cycloheximide.0.5.uM
  growth of ABP1 SH3-swapped strains in stress condition: 10.0755
[1]; DMSO.2.
  growth of ABP1 SH3-swapped strains in stress condition: 10.9922
[1]; DMSO.6.
  growth of ABP1 SH3-swapped strains in stress condition: 9.827
[1]; DMSO.8.
  growth of ABP1 SH3-swapped strains in stress condition: 9.078
[1]; Ethanol.2.
  growth of ABP1 SH3-swapped strains in stress condition: 10.7562
[1]; Ethanol.6.
  growth of ABP1 SH3-swapped strains in stress condition: 10.3054
[1]; Ethanol.8.
  growth of ABP1 SH3-swapped strains in stress condition: 10.1073
[1]; Galactose.2.
  growth of ABP1 SH3-swapped strains in stress condition: 10.7616
[1]; Glycerol.2.
  growth of ABP1 SH3-swapped strains in stress condition: 9.801
[1]; Hydroxyurea.25mM
  growth of ABP1 SH3-swapped strains in stress condition: 10.7452
[1]; Hygromycin.190uM
  growth of ABP1 SH3-swapped strains in stress condition: 10.9449
[1]; Hygromycin.19uM
  growth of ABP1 SH3-swapped strains in stress condition: 10.972
[1]; Hygromycin.95uM
  growth of ABP1 SH3-swapped strains in stress condition: 11.0099
[1]; MMS.0.004.
  growth of ABP1 SH3-swapped strains in stress condition: 10.8938
[1]; MMS.0.02.
  growth of ABP1 SH3-swapped strains in stress condition: 10.6752
[1]; MMS.0.04.
  growth of ABP1 SH3-swapped strains in stress condition: 9.941
[1]; Menadione.100uM
  growth of ABP1 SH3-swapped strains in stress condition: 10.5548
[1]; Menadione.200uM
  growth of ABP1 SH3-swapped strains in stress condition: 10.4212
[1]; Menadione.50uM
  growth of ABP1 SH3-swapped strains in stress condition: 10.7634
[1]; NaCl.0.25M
  growth of ABP1 SH3-swapped strains in stress condition: 10.7655
[1]; NaCl.1M
  growth of ABP1 SH3-swapped strains in stress condition: 9.597
[1]; Nitroquinoline.10uM
  growth of ABP1 SH3-swapped strains in stress condition: 10.6917
[1]; Nitroquinoline.50uM
  growth of ABP1 SH3-swapped strains in stress condition: 10.5789
[1]; Nystatin.0.01uM
  growth of ABP1 SH3-swapped strains in stress condition: 10.9774
[1]; Nystatin.0.1uM
  growth of ABP1 SH3-swapped strains in stress condition: 10.9878
[1]; Raffinose.2.
  growth of ABP1 SH3-swapped strains in stress condition: 11.0045
[1]; Rapamycin.10nM
  growth of ABP1 SH3-swapped strains in stress condition: 9.889
[1]; Rapamycin.50nM
  growth of ABP1 SH3-swapped strains in stress condition: 9.373
[1]; SC.pH3
  growth of ABP1 SH3-swapped strains in stress condition: 10.3957
[1]; SC.pH6
  growth of ABP1 SH3-swapped strains in stress condition: 10.965
[1]; SDS.0.01.
  growth of ABP1 SH3-swapped strains in stress condition: 10.9519
[1]; SDS.0.02.
  growth of ABP1 SH3-swapped strains in stress condition: 11.0022
[1]; SDS.0.05.
  growth of ABP1 SH3-swapped strains in stress condition: 10.8383
[1]; Sorbitol.10mM
  growth of ABP1 SH3-swapped strains in stress condition: 10.9602
[1]; Sorbitol.1mM
  growth of ABP1 SH3-swapped strains in stress condition: 11.0196
[1]; Sorbitol.5mM
  growth of ABP1 SH3-swapped strains in stress condition: 10.9136
